# Results: patent US4264577A, “Contraceptive methods and compositions” (Eli Lilly and Company, priority 1980, dated 1981)
# Experiments:
# [1] = tested on: Dutch belted virgin rabbits; assay: Antifertility effect by intrauterine administration (medicated rubber rod in uterine horn); type: in vivo, rabbit; details: 40-mg rod, 10% W/W, in right uterine horn; 8 uterine horns; 14 days after breeding
# Procedure: Dutch belted virgin rabbits, each weighing 3-4 pounds, are randomly selected and anesthetized with sodium pentobarbital ([…].) administered by IV drip. The uterus of each animal is exposed and a 40-mg. sample in the shape of a rod (3 mm. in diameter) of dimethylpolysiloxane rubber (as prepared in Example 3, Method A) containing 10% W/W of sodium tetradecyl sulfate is sutured into the right uterine horn at a random location in between the cervix and the uterotubal junction. The left horn is left untreated to serve as control. The rubber rod is placed into the uterine horn by passing a curved needle through it and through the uterine wall pulling the rod into the uterine lumen. The entry is closed by suturing. Animals (blank) are similarly treated using unmedicated dimethylpolysiloxane rubber to serve as a second group of controls. The animals are given 300,000 units of Duracillin®) per day (in four doses) and are allowed to recover for 14 days. Each animal is bred to a male of proven fertility and is immediately given a dose (IV) of appropoximately 100 units of human chorionic gonadotropin (HCG) to facilitate ovulation. Fourteen days after breeding, the animal are sacrificed by cervical dislocation and the uterine horns are examined for implanted embryos. The number of embryos per uterine horn are recorded. […]
# [2] = tested on: zona pellucida of rabbit ova; assay: Removal of zona pellucida from ova by acrosin, in vitro; type: cell-based; details: 10 μl. of 10 mg./ml. solution, 37° C.; sulfate
# Procedure: In the absence of sodium n-tetradecyl sulfate, complete removal of the cumulus oophorus and zona pellucida is observed.
# Female rabbits are given 100 units of pregnant mares serum (PMS), IM, and 134 units of HCG, IV. After 13 hours the animals are sacrificed and the ovaries are excised. The ovaries are submerged in calcium-free Ringer's solution. Ova are removed and placed in 1 ml. of calcium-free Ringer's solution The solutions are all shaken vigorously for 5 to 10 minutes, which rids the ova of the cumulus oophorus and the corona radiata. Acrosin (isolated from boar sperm) (100 μl., of a solution containing 2000 U/ml. in 0.1 M sodium acetate and 0.02 M calcium chloride) is added to each of 10 ova. To each of 10 other ova in the same medium is added 10 μl. of solution of sodium n-tetradecyl sulfate (10 mg./ml.) in calcium-free Ringer's solution. To 10 other ova is added […]. of calcium-free Ringer's solution as a control. The solutions are all incubated at 37° C. The zona pellucida is observed at 15 minute intervals with an American Optical stereomicroscope. In the absence of sodium n-tetradecyl sulfate, the zona pellucida is completely removed.
# [3] = Release from coated medicated dimethylpolysiloxane rods into water; type: physicochemical
# Procedure: Dimethylpolysiloxane rubber rods (3 mm. diameter) containing 25% (W/W) sodium n-tetradecyl sulfate are prepared by the procedure described in Example 3, Method B. The rods are cut into one-inch pieces. A coating solution is prepared by dissolving 12.5 grams of dimethylpolysiloxane elastomer (DOW-Corning MDX-4-4210) in 37.5 ml of methylene chloride and then dissolving 1.88 grams of curing agent (Dow-Corning MDX-4-4210) therein. A straight pin is placed in the end of each one inch piece of rod. The piece of rod, held by the pin, is dipped into the above solution, and the rod is withdrawn from the solution and drained. The piece of rod is rotated as methylene chloride evaporates. The coated rods are placed in an oven at 120° C. for 10 minutes to cure the coating. The coated rods are then placed in a vacuum oven at 40° C. overnight to remove all methylene chloride. A second and third coat can be applied by the above method.
# The release of sodium n-tetradecyl sulfate from the coated medicated rods, prepared as above-described, into water is shown in Table 10, below:
# ^(a) Weight of rods: 500 mg.; amount of water added: 10 ml.;
# temperature: 37° C.; active compound determined by methylene blue
# [4] = tested on: rats; details: orally (rats); cited from earlier work
smiles,measurement,setting,value
"CCCCCCCCCCCCCCOS(=O)(=O)[O-].[Na+] [n-tetradecyl, sodium n-tetradecyl sulfate]",Embryos Horn (x ± S.D.),[1],0
same,Total No. of embryos,[1],0
same,state of zona pellucida in presence of acrosin,[2],remains substantially intact
same,Amount of sodium n-tetradecyl sulfate released (mg. per 7 days),"[3]; 1 coat, Days 7, 500 mg rod, 25% W/W, 10 ml water 37° C.",0 mg. per 7 days
same,Amount of sodium n-tetradecyl sulfate released (mg. per 7 days),"[3]; 1 coat, Days 14",0.14 mg. per 7 days
same,Amount of sodium n-tetradecyl sulfate released (mg. per 7 days),"[3]; 1 coat, Days 21",77.4 mg. per 7 days
same,Amount of sodium n-tetradecyl sulfate released (mg. per 7 days),"[3]; 1 coat, Days 28",414.0 mg. per 7 days
same,Amount of sodium n-tetradecyl sulfate released (mg. per 7 days),"[3]; 1 coat, Days 35",128.0 mg. per 7 days
same,Amount of sodium n-tetradecyl sulfate released (mg. per 7 days),"[3]; 1 coat, Days 42",586.0 mg. per 7 days
same,Amount of sodium n-tetradecyl sulfate released (mg. per 7 days),"[3]; 1 coat, Days 49",370.0 mg. per 7 days
same,Amount of sodium n-tetradecyl sulfate released (mg. per 7 days),"[3]; 1 coat, Days 56",524.0 mg. per 7 days
same,Amount of sodium n-tetradecyl sulfate released (mg. per 7 days),"[3]; 1 coat, Days 63",571.0 mg. per 7 days
same,Amount of sodium n-tetradecyl sulfate released (mg. per 7 days),"[3]; 1 coat, Days 70",524.0 mg. per 7 days
same,Amount of sodium n-tetradecyl sulfate released (mg. per 7 days),"[3]; 1 coat, Days 77",471.0 mg. per 7 days
same,Amount of sodium n-tetradecyl sulfate released (mg. per 7 days),"[3]; 1 coat, Days 84",386.0 mg. per 7 days
same,Amount of sodium n-tetradecyl sulfate released (mg. per 7 days),"[3]; 1 coat, Days 91",330.0 mg. per 7 days
same,Amount of sodium n-tetradecyl sulfate released (mg. per 7 days),"[3]; 1 coat, Days 98",349.0 mg. per 7 days
same,Amount of sodium n-tetradecyl sulfate released (mg. per 7 days),"[3]; 1 coat, Days 105",240.0 mg. per 7 days
same,Amount of sodium n-tetradecyl sulfate released (mg. per 7 days),"[3]; 1 coat, Days 112",329.0 mg. per 7 days
same,Amount of sodium n-tetradecyl sulfate released (mg. per 7 days),"[3]; 1 coat, Days 119",286.0 mg. per 7 days
same,Amount of sodium n-tetradecyl sulfate released (mg. per 7 days),"[3]; 1 coat, Days 126",430.0 mg. per 7 days
same,Amount of sodium n-tetradecyl sulfate released (mg. per 7 days),"[3]; 2 coat, Days 7",0 mg. per 7 days
same,Amount of sodium n-tetradecyl sulfate released (mg. per 7 days),"[3]; 2 coat, Days 14",0 mg. per 7 days
same,Amount of sodium n-tetradecyl sulfate released (mg. per 7 days),"[3]; 2 coat, Days 21",.03 mg. per 7 days
same,Amount of sodium n-tetradecyl sulfate released (mg. per 7 days),"[3]; 2 coat, Days 28",628.0 mg. per 7 days
same,Amount of sodium n-tetradecyl sulfate released (mg. per 7 days),"[3]; 2 coat, Days 35",124.0 mg. per 7 days
same,Amount of sodium n-tetradecyl sulfate released (mg. per 7 days),"[3]; 2 coat, Days 42",96.0 mg. per 7 days
same,Amount of sodium n-tetradecyl sulfate released (mg. per 7 days),"[3]; 2 coat, Days 49",186.0 mg. per 7 days
same,Amount of sodium n-tetradecyl sulfate released (mg. per 7 days),"[3]; 2 coat, Days 56",135.0 mg. per 7 days
same,Amount of sodium n-tetradecyl sulfate released (mg. per 7 days),"[3]; 2 coat, Days 63",183.0 mg. per 7 days
same,Amount of sodium n-tetradecyl sulfate released (mg. per 7 days),"[3]; 2 coat, Days 70",174.0 mg. per 7 days
same,Amount of sodium n-tetradecyl sulfate released (mg. per 7 days),"[3]; 2 coat, Days 77",229.0 mg. per 7 days
same,Amount of sodium n-tetradecyl sulfate released (mg. per 7 days),"[3]; 2 coat, Days 84",170.0 mg. per 7 days
same,Amount of sodium n-tetradecyl sulfate released (mg. per 7 days),"[3]; 2 coat, Days 91",200.0 mg. per 7 days
same,Amount of sodium n-tetradecyl sulfate released (mg. per 7 days),"[3]; 2 coat, Days 98",190.0 mg. per 7 days
same,Amount of sodium n-tetradecyl sulfate released (mg. per 7 days),"[3]; 2 coat, Days 105",224.0 mg. per 7 days
same,Amount of sodium n-tetradecyl sulfate released (mg. per 7 days),"[3]; 2 coat, Days 112",121.0 mg. per 7 days
same,Amount of sodium n-tetradecyl sulfate released (mg. per 7 days),"[3]; 2 coat, Days 119",100.0 mg. per 7 days
same,Amount of sodium n-tetradecyl sulfate released (mg. per 7 days),"[3]; 2 coat, Days 126",92.0 mg. per 7 days
same,Amount of sodium n-tetradecyl sulfate released (mg. per 7 days),"[3]; 3 coat, Days 7",0 mg. per 7 days
same,Amount of sodium n-tetradecyl sulfate released (mg. per 7 days),"[3]; 3 coat, Days 14",.02 mg. per 7 days
same,Amount of sodium n-tetradecyl sulfate released (mg. per 7 days),"[3]; 3 coat, Days 21",0 mg. per 7 days
same,Amount of sodium n-tetradecyl sulfate released (mg. per 7 days),"[3]; 3 coat, Days 28",10.0 mg. per 7 days
same,Amount of sodium n-tetradecyl sulfate released (mg. per 7 days),"[3]; 3 coat, Days 35",142.0 mg. per 7 days
same,Amount of sodium n-tetradecyl sulfate released (mg. per 7 days),"[3]; 3 coat, Days 42",0 mg. per 7 days
same,Amount of sodium n-tetradecyl sulfate released (mg. per 7 days),"[3]; 3 coat, Days 49",186.0 mg. per 7 days
same,Amount of sodium n-tetradecyl sulfate released (mg. per 7 days),"[3]; 3 coat, Days 56",143.0 mg. per 7 days
same,Amount of sodium n-tetradecyl sulfate released (mg. per 7 days),"[3]; 3 coat, Days 63",194.0 mg. per 7 days
same,Amount of sodium n-tetradecyl sulfate released (mg. per 7 days),"[3]; 3 coat, Days 70",174.0 mg. per 7 days
same,Amount of sodium n-tetradecyl sulfate released (mg. per 7 days),"[3]; 3 coat, Days 77",157.0 mg. per 7 days
same,Amount of sodium n-tetradecyl sulfate released (mg. per 7 days),"[3]; 3 coat, Days 84",160.0 mg. per 7 days
same,Amount of sodium n-tetradecyl sulfate released (mg. per 7 days),"[3]; 3 coat, Days 91",140.0 mg. per 7 days
same,Amount of sodium n-tetradecyl sulfate released (mg. per 7 days),"[3]; 3 coat, Days 98",159.0 mg. per 7 days
same,Amount of sodium n-tetradecyl sulfate released (mg. per 7 days),"[3]; 3 coat, Days 105",196.0 mg. per 7 days
same,Amount of sodium n-tetradecyl sulfate released (mg. per 7 days),"[3]; 3 coat, Days 112",157.0 mg. per 7 days
same,Amount of sodium n-tetradecyl sulfate released (mg. per 7 days),"[3]; 3 coat, Days 119",150.0 mg. per 7 days
same,Amount of sodium n-tetradecyl sulfate released (mg. per 7 days),"[3]; 3 coat, Days 126",156.0 mg. per 7 days
same,LD50,[4],greater than 3.5 g/kg.
